# Measured values as given in PubChem BioAssay (NCI).
#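 The compound was tested at five concentrations on cells cultured in 96-well plates, with a 48-hour exposure period. The concentration for full growth arrest is given as TGI.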
# Legend:
# Test in all cases: NCI anticancer screen, dose series, 48 h
# SF-268 CNS = system: SF-268 CNS
# MDA-N = system: MDA-N
# HCT-116 colon = system: HCT-116 colon
# A549 NSCLC = system: A549 NSCLC
# RPMI-8226 leukemia = system: RPMI-8226 leukemia
# OVCAR-8 ovarian = system: OVCAR-8 ovarian
# NCI-H23 lung = system: NCI-H23 lung
# HOP-62 NSCLC = system: HOP-62 NSCLC
# COLO 205 colon = system: COLO 205 colon
# CAKI-1 renal = system: CAKI-1 renal
# MOLT-4 leukemia = system: MOLT-4 leukemia
# OVCAR-5 ovarian = system: OVCAR-5 ovarian
# 786-0 renal = system: 786-0 renal
# IGROV1 ovarian = system: IGROV1 ovarian
# SK-MEL-28 melanoma = system: SK-MEL-28 melanoma
# ACHN renal = system: ACHN renal
# NCI/ADR-RES ovarian = system: NCI/ADR-RES ovarian
# EKVX NSCLC = system: EKVX NSCLC
# UACC-62 melanoma = system: UACC-62 melanoma
# MALME-3M melanoma = system: MALME-3M melanoma
# K-562 leukemia = system: K-562 leukemia
# BT-549 breast = system: BT-549 breast
# TK-10 renal = system: TK-10 renal
# NCI-H522 lung = system: NCI-H522 lung
# OVCAR-3 ovarian = system: OVCAR-3 ovarian
# SK-MEL-2 melanoma = system: SK-MEL-2 melanoma
# HL-60(TB) leukemia = system: HL-60(TB) leukemia
# HCC-2998 colon = system: HCC-2998 colon
# SF-539 CNS = system: SF-539 CNS
# CCRF-CEM leukemia = system: CCRF-CEM leukemia
# SNB-75 CNS = system: SNB-75 CNS
# SR leukemia = system: SR leukemia
# UACC-257 melanoma = system: UACC-257 melanoma
# UO-31 renal = system: UO-31 renal
# U251 CNS = system: U251 CNS
# RXF 393 renal = system: RXF 393 renal
# HCT-15 colon = system: HCT-15 colon
# NCI-H226 lung = system: NCI-H226 lung
# MCF7 breast = system: MCF7 breast
# SK-OV-3 ovarian = system: SK-OV-3 ovarian
# SW-620 colon = system: SW-620 colon
# M14 melanoma = system: M14 melanoma
# SNB-19 CNS = system: SNB-19 CNS
# PC-3 prostate = system: PC-3 prostate
# OVCAR-4 ovarian = system: OVCAR-4 ovarian
# HT29 colon = system: HT29 colon
# SF-295 CNS = system: SF-295 CNS
# DU-145 prostate = system: DU-145 prostate
# NCI-H460 lung = system: NCI-H460 lung
# KM12 colon = system: KM12 colon
# SN12C renal = system: SN12C renal
# HOP-92 NSCLC = system: HOP-92 NSCLC
# SK-MEL-5 melanoma = system: SK-MEL-5 melanoma
# LOX IMVI melanoma = system: LOX IMVI melanoma
# HS 578T breast = system: HS 578T breast
# T-47D breast = system: T-47D breast
# MDA-MB-231 breast = system: MDA-MB-231 breast
# MDA-MB-435 = system: MDA-MB-435
# A498 renal = system: A498 renal
structure (smiles),measurement,setting,value
CC(C)=Nn1cnc(C(=N)C#N)c1N,TGI,SF-268 CNS,> 100 µM
same,TGI,MDA-N,> 100 µM
same,TGI,HCT-116 colon,> 100 µM
same,TGI,A549 NSCLC,> 100 µM
same,TGI,RPMI-8226 leukemia,> 100 µM
same,TGI,OVCAR-8 ovarian,> 100 µM
same,TGI,NCI-H23 lung,> 100 µM
same,TGI,HOP-62 NSCLC,> 100 µM
same,TGI,COLO 205 colon,> 100 µM
same,TGI,CAKI-1 renal,> 100 µM
same,TGI,MOLT-4 leukemia,> 100 µM
same,TGI,OVCAR-5 ovarian,> 100 µM
same,TGI,786-0 renal,> 100 µM
same,TGI,IGROV1 ovarian,> 100 µM
same,TGI,SK-MEL-28 melanoma,> 100 µM
same,TGI,ACHN renal,> 100 µM
same,TGI,NCI/ADR-RES ovarian,> 100 µM
same,TGI,EKVX NSCLC,> 100 µM
same,TGI,UACC-62 melanoma,> 100 µM
same,TGI,MALME-3M melanoma,> 100 µM
same,TGI,K-562 leukemia,> 100 µM
same,TGI,BT-549 breast,> 100 µM
same,TGI,TK-10 renal,> 100 µM
same,TGI,NCI-H522 lung,> 100 µM
same,TGI,OVCAR-3 ovarian,> 100 µM
same,TGI,SK-MEL-2 melanoma,> 100 µM
same,TGI,HL-60(TB) leukemia,> 100 µM
same,TGI,HCC-2998 colon,> 100 µM
same,TGI,SF-539 CNS,> 100 µM
same,TGI,CCRF-CEM leukemia,> 100 µM
same,TGI,SNB-75 CNS,> 100 µM
same,TGI,SR leukemia,> 100 µM
same,TGI,UACC-257 melanoma,> 100 µM
same,TGI,UO-31 renal,> 100 µM
same,TGI,U251 CNS,> 100 µM
same,TGI,RXF 393 renal,> 100 µM
same,TGI,HCT-15 colon,> 100 µM
same,TGI,NCI-H226 lung,> 100 µM
same,TGI,MCF7 breast,> 100 µM
same,TGI,SK-OV-3 ovarian,> 100 µM
same,TGI,SW-620 colon,> 100 µM
same,TGI,M14 melanoma,> 100 µM
same,TGI,SNB-19 CNS,> 100 µM
same,TGI,PC-3 prostate,> 100 µM
same,TGI,OVCAR-4 ovarian,> 100 µM
same,TGI,HT29 colon,> 100 µM
same,TGI,SF-295 CNS,> 100 µM
same,TGI,DU-145 prostate,> 100 µM
same,TGI,NCI-H460 lung,> 100 µM
CC(C)(C)c1cc(C(=O)/C=C/c2ccn[nH]2)cc(C(C)(C)C)c1O,TGI,SF-268 CNS,6.39 µM
same,TGI,KM12 colon,5.35 µM
same,TGI,SN12C renal,3.6 µM
same,TGI,HCT-116 colon,6.11 µM
same,TGI,A549 NSCLC,9.8 µM
same,TGI,RPMI-8226 leukemia,3.37 µM
same,TGI,OVCAR-8 ovarian,6.02 µM
same,TGI,NCI-H23 lung,7.38 µM
same,TGI,HOP-62 NSCLC,9.52 µM
same,TGI,COLO 205 colon,4.98 µM
same,TGI,CAKI-1 renal,6.98 µM
same,TGI,MOLT-4 leukemia,10.1 µM
same,TGI,OVCAR-5 ovarian,13.6 µM
same,TGI,786-0 renal,3.05 µM
same,TGI,IGROV1 ovarian,3.97 µM
same,TGI,SK-MEL-28 melanoma,11.7 µM
same,TGI,HOP-92 NSCLC,5.53 µM
same,TGI,ACHN renal,3.03 µM
same,TGI,NCI/ADR-RES ovarian,16.1 µM
same,TGI,EKVX NSCLC,28.4 µM
same,TGI,UACC-62 melanoma,8.37 µM
same,TGI,MALME-3M melanoma,20.2 µM
same,TGI,K-562 leukemia,10.3 µM
same,TGI,BT-549 breast,17 µM
same,TGI,TK-10 renal,2.92 µM
same,TGI,NCI-H522 lung,2.73 µM
same,TGI,OVCAR-3 ovarian,7.39 µM
same,TGI,SK-MEL-5 melanoma,20.1 µM
same,TGI,SK-MEL-2 melanoma,3.43 µM
same,TGI,HL-60(TB) leukemia,5.64 µM
same,TGI,HCC-2998 colon,3.37 µM
same,TGI,SF-539 CNS,9.07 µM
same,TGI,CCRF-CEM leukemia,5.97 µM
same,TGI,SNB-75 CNS,9.61 µM
same,TGI,SR leukemia,3.61 µM
same,TGI,UACC-257 melanoma,11.2 µM
same,TGI,LOX IMVI melanoma,3.48 µM
same,TGI,HS 578T breast,9.22 µM
same,TGI,UO-31 renal,3.23 µM
same,TGI,U251 CNS,3.11 µM
same,TGI,RXF 393 renal,3.19 µM
same,TGI,HCT-15 colon,4.71 µM
same,TGI,NCI-H226 lung,11.6 µM
same,TGI,MCF7 breast,4.78 µM
same,TGI,SK-OV-3 ovarian,31.7 µM
same,TGI,SW-620 colon,6.27 µM
same,TGI,M14 melanoma,3.51 µM
same,TGI,SNB-19 CNS,9.91 µM
same,TGI,PC-3 prostate,5.18 µM
same,TGI,T-47D breast,3.32 µM
same,TGI,OVCAR-4 ovarian,18 µM
same,TGI,MDA-MB-231 breast,3.97 µM
same,TGI,HT29 colon,6.59 µM
same,TGI,SF-295 CNS,28.1 µM
same,TGI,DU-145 prostate,7.52 µM
same,TGI,MDA-MB-435,8.34 µM
same,TGI,NCI-H460 lung,8.6 µM
same,TGI,A498 renal,6.25 µM
CC[C@H]1C=CCC[C@@]2(C[C@@H]3CC[C@@H]4[C@H](C(=O)OCCCCCCCCCCCCCCCC(=O)N(CCCN)CCCCN)[C@]5(CCC[C@@H](C)O5)NC(=[N+]34)N2)O1,TGI,MDA-N,1.83 µM
same,TGI,KM12 colon,1.2 µM
same,TGI,HCT-116 colon,1.41 µM
same,TGI,A549 NSCLC,1.42 µM
same,TGI,NCI-H23 lung,1.07 µM
same,TGI,HOP-62 NSCLC,0.106 µM
same,TGI,CAKI-1 renal,1.59 µM
same,TGI,IGROV1 ovarian,2.28 µM
same,TGI,HOP-92 NSCLC,0.197 µM
same,TGI,NCI/ADR-RES ovarian,2.7 µM
same,TGI,MALME-3M melanoma,0.119 µM
same,TGI,UO-31 renal,0.334 µM
same,TGI,U251 CNS,1.54 µM
same,TGI,HCT-15 colon,1.4 µM
same,TGI,M14 melanoma,0.0187 µM
same,TGI,SNB-19 CNS,1.99 µM
same,TGI,PC-3 prostate,1.46 µM
same,TGI,HT29 colon,1.32 µM
